# What was measured:
# Japanese bulrush [1] = test: Test Example 1: herbicidal activity, application before weed generation under submerged conditions (Table 16, symbol B); format: in vivo, Japanese bulrush (Schoenoplectus juncoides); conditions: for Herbicidal effect, B: Japanese bulrush: amount of applied herbicide 320 g/ha
# Summary of the method: (§1)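 Emulsion formulation, water-diluted to set dose, was put onto the flooded surface (4 cm depth, alluvial soil) the same day weeds were sown and 2.5-leaf rice transplanted. After 3 weeks at 25-30 °C under glass, each species was rated 0 (≤5% kill) to 5 (≥90% kill).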
# barnyard grass [2] = test: Test Example 4: herbicidal effect by soil treatment (Table 19, symbol H); format: in vivo, barnyard grass (Echinochloa crus-galli); conditions: amount of applied herbicide 320 g/ha
# Summary of the method: (§2)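 Applied as a water-diluted emulsion, the compound was sprayed onto soil covering newly sown seeds. Evaluation came three weeks after application, in a greenhouse held at 25° C. to 30° C.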
# rice flat sedge = test: Test Example 3: herbicidal effect by foliage application, Wagner pot (Table 18, symbol E); format: in vivo, rice flat sedge (Cyperus iria); conditions: amount of applied herbicide 320 g/ha
# Summary of the method: (§3)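 Plants were sown in alluvial soil held under 0.1–0.5 cm standing water and grown 14 days in a greenhouse at 25–30 °C. An emulsifiable formulation, water-diluted to the set dose, was then sprayed onto the foliage, and effects were scored three weeks later using previously defined criteria.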
# barnyard grass [3] = test: Test Example 3: herbicidal effect by foliage application, Wagner pot (Table 18, symbol H); format: in vivo, barnyard grass (Echinochloa crus-galli); conditions: amount of applied herbicide 320 g/ha
# Summary of the method: as §3
# Italian ryegrass [4] = test: Test Example 4: herbicidal effect by soil treatment (Table 19, symbol K); format: in vivo, Italian ryegrass (Lolium multiflorum); conditions: amount of applied herbicide 320 g/ha
# Summary of the method: as §2
# green foxtail [5] = test: Test Example 4: herbicidal effect by soil treatment (Table 19, symbol G); format: in vivo, green foxtail (Setaria viridis); conditions: amount of applied herbicide 320 g/ha
# Summary of the method: as §2
# oval-leafed pondweed [6] = test: Test Example 2: herbicidal activity, application during weed generation under submerged conditions (Table 17, symbol C); format: in vivo, oval-leafed pondweed (Monochoria vaginalis); conditions: AAH 320 g/ha; application during weed generation, submerged conditions
# Summary of the method: (§4)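 Herbicide emulsion, diluted with water to the chosen amount, is applied onto 4 cm floodwater over alluvial soil where the weeds were co-sown and raised at 25–30° C. Application timing: 1–2 leaves. Assessment: three weeks afterwards.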
# late watergrass [7] = test: Test Example 2: herbicidal activity, application during weed generation under submerged conditions (Table 17, symbol A); format: in vivo, late watergrass (Echinochloa oryzicola); conditions: AAH 320 g/ha; application during weed generation, submerged conditions
# Summary of the method: as §4
# Chinese sprangletop = test: Test Example 3: herbicidal effect by foliage application, Wagner pot (Table 18, symbol D); format: in vivo, chinese sprangletop (Leptochloa chinensis); conditions: amount of applied herbicide 320 g/ha
# Summary of the method: as §3
# Japanese bulrush [8] = test: Test Example 2: herbicidal activity, application during weed generation under submerged conditions (Table 17, symbol B); format: in vivo, Japanese bulrush (Schoenoplectus juncoides); conditions: AAH 320 g/ha; application during weed generation, submerged conditions
# Summary of the method: as §4
# lambsquarters [9] = test: Test Example 4: herbicidal effect by soil treatment (Table 19, symbol O); format: in vivo, lambsquarters (Chenopodium album); conditions: amount of applied herbicide 320 g/ha
# Summary of the method: as §2
# chickweed [10] = test: Test Example 4: herbicidal effect by soil treatment (Table 19, symbol P); format: in vivo, common chickweed (Stellaria media); conditions: amount of applied herbicide 320 g/ha
# Summary of the method: as §2
# persian speedwell [11] = test: Test Example 4: herbicidal effect by soil treatment (Table 19, symbol R); format: in vivo, Persian speedwell (Veronica persica); conditions: amount of applied herbicide 320 g/ha
# Summary of the method: as §2
# redroot pigweed [12] = test: Test Example 4: herbicidal effect by soil treatment (Table 19, symbol N); format: in vivo, redroot pigweed (Amaranthus retroflexus); conditions: amount of applied herbicide 320 g/ha
# Summary of the method: as §2
# oval-leafed pondweed [13] = test: Test Example 1: herbicidal activity, application before weed generation under submerged conditions (Table 16, symbol C); format: in vivo, oval-leafed pondweed (Monochoria vaginalis); conditions: for Herbicidal effect, C: oval-leafed pondweed: amount of applied herbicide 320 g/ha
# Summary of the method: as §1
# windgrass [14] = test: Test Example 4: herbicidal effect by soil treatment (Table 19, symbol L); format: in vivo, windgrass (Apera spica-venti); conditions: amount of applied herbicide 320 g/ha
# Summary of the method: as §2
# southern crabgrass [15] = test: Test Example 4: herbicidal effect by soil treatment (Table 19, symbol F); format: in vivo, southern crabgrass (Digitaria ciliaris); conditions: amount of applied herbicide 320 g/ha
# Summary of the method: as §2
# velvetleaf [16] = test: Test Example 4: herbicidal effect by soil treatment (Table 19, symbol M); format: in vivo, velvetleaf (Abutilon theophrasti); conditions: amount of applied herbicide 320 g/ha
# Summary of the method: as §2
# wild oat [17] = test: Test Example 4: herbicidal effect by soil treatment (Table 19, symbol I); format: in vivo, wild oat (Avena fatua); conditions: amount of applied herbicide 320 g/ha
# Summary of the method: as §2
# late watergrass [18] = test: Test Example 1: herbicidal activity, application before weed generation under submerged conditions (Table 16, symbol A); format: in vivo, late watergrass (Echinochloa oryzicola); conditions: for Herbicidal effect, A: late watergrass: amount of applied herbicide 320 g/ha
# Summary of the method: as §1
# blackgrass [19] = test: Test Example 4: herbicidal effect by soil treatment (Table 19, symbol J); format: in vivo, blackgrass (Alopecurus myosuroides); conditions: amount of applied herbicide 320 g/ha
# Summary of the method: as §2
# chickweed [20] = test: Test Example 5: herbicidal effect by foliage application, plastic box (Table 20, symbol P); format: in vivo, common chickweed (Stellaria media); conditions: foliage application, 320 g/ha, three weeks after application
# Summary of the method: (§5)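 Sow seeds spot-wise in sterilized diluvial soil; cover with ~1.5 cm soil. Grow 14 days in greenhouse, 25° C. to 30° C. Spray foliage with emulsion diluted to predetermined amount. Rate effect after 3 weeks.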
# wild oat [21] = test: Test Example 5: herbicidal effect by foliage application, plastic box (Table 20, symbol I); format: in vivo, wild oat (Avena fatua); conditions: foliage application, 320 g/ha, three weeks after application
# Summary of the method: as §5
# windgrass [22] = test: Test Example 5: herbicidal effect by foliage application, plastic box (Table 20, symbol L); format: in vivo, windgrass (Apera spica-venti); conditions: foliage application, 320 g/ha, three weeks after application
# Summary of the method: as §5
# barnyard grass [23] = test: Test Example 5: herbicidal effect by foliage application, plastic box (Table 20, symbol H); format: in vivo, barnyard grass (Echinochloa crus-galli); conditions: foliage application, 320 g/ha, three weeks after application
# Summary of the method: as §5
# redroot pigweed [24] = test: Test Example 5: herbicidal effect by foliage application, plastic box (Table 20, symbol N); format: in vivo, redroot pigweed (Amaranthus retroflexus); conditions: foliage application, 320 g/ha, three weeks after application
# Summary of the method: as §5
# velvetleaf [25] = test: Test Example 5: herbicidal effect by foliage application, plastic box (Table 20, symbol M); format: in vivo, velvetleaf (Abutilon theophrasti); conditions: foliage application, 320 g/ha, three weeks after application
# Summary of the method: as §5
# Italian ryegrass [26] = test: Test Example 5: herbicidal effect by foliage application, plastic box (Table 20, symbol K); format: in vivo, Italian ryegrass (Lolium multiflorum); conditions: foliage application, 320 g/ha, three weeks after application
# Summary of the method: as §5
# blackgrass [27] = test: Test Example 5: herbicidal effect by foliage application, plastic box (Table 20, symbol J); format: in vivo, blackgrass (Alopecurus myosuroides); conditions: foliage application, 320 g/ha, three weeks after application
# Summary of the method: as §5
# southern crabgrass [28] = test: Test Example 5: herbicidal effect by foliage application, plastic box (Table 20, symbol F); format: in vivo, southern crabgrass (Digitaria ciliaris); conditions: foliage application, 320 g/ha, three weeks after application
# Summary of the method: as §5
# persian speedwell [29] = test: Test Example 5: herbicidal effect by foliage application, plastic box (Table 20, symbol R); format: in vivo, Persian speedwell (Veronica persica); conditions: foliage application, 320 g/ha, three weeks after application
# Summary of the method: as §5
# lambsquarters [30] = test: Test Example 5: herbicidal effect by foliage application, plastic box (Table 20, symbol O); format: in vivo, lambsquarters (Chenopodium album); conditions: foliage application, 320 g/ha, three weeks after application
# Summary of the method: as §5
# green foxtail [31] = test: Test Example 5: herbicidal effect by foliage application, plastic box (Table 20, symbol G); format: in vivo, green foxtail (Setaria viridis); conditions: foliage application, 320 g/ha, three weeks after application
# Summary of the method: as §5
Structure (SMILES),herbicidal effect on E: rice flat sedge (rice flat sedge),herbicidal effect on H: barnyard grass (barnyard grass [3]),"herbicidal effect rating, C: oval-leafed pondweed (oval-leafed pondweed [6])","herbicidal effect rating, A: late watergrass (late watergrass [7])",herbicidal effect on D: Chinese sprangletop (Chinese sprangletop),"herbicidal effect rating, B: Japanese bulrush (Japanese bulrush [8])","P: chickweed, herbicidal effect grade (chickweed [20])","Herbicidal effect, B: Japanese bulrush (Japanese bulrush [1])","I: wild oat, herbicidal effect grade (wild oat [21])","L: windgrass, herbicidal effect grade (windgrass [22])","H: barnyard grass, herbicidal effect grade (barnyard grass [23])","N: redroot pigweed, herbicidal effect grade (redroot pigweed [24])","Herbicidal effect, C: oval-leafed pondweed (oval-leafed pondweed [13])","M: velvetleaf, herbicidal effect grade (velvetleaf [25])","K: Italian ryegrass, herbicidal effect grade (Italian ryegrass [26])","J: blackgrass, herbicidal effect grade (blackgrass [27])","F: southern crabgrass, herbicidal effect grade (southern crabgrass [28])","R: persian speedwell, herbicidal effect grade (persian speedwell [29])","Herbicidal effect, A: late watergrass (late watergrass [18])","O: lambsquarters, herbicidal effect grade (lambsquarters [30])",other results
Cc1nn(C)c(=O)c(-c2c(-c3ccc(F)c(Cl)c3)sc3ccc(F)cc23)c1O [2-352],5 (Herbicidal rate of 90% or more (almost completely withered)),5 (Herbicidal rate of 90% or more (almost completely withered)),0 (Herbicidal rate of 5% or less (almost no effect)),0 (Herbicidal rate of 5% or less (almost no effect)),5 (Herbicidal rate of 90% or more (almost completely withered)),2 (Herbicidal rate of 20% or more and less than 40%),,,,,,,,,,,,,,,"Herbicidal effect on B: Japanese bulrush (grade 0-5) (Japanese bulrush [1]; 320 g/ha applied herbicide): 2 (Herbicidal rate of 20% or more and less than 40%); herbicidal effect, H: barnyard grass (barnyard grass [2]): 3 (Herbicidal rate of 40% or more and less than 70%); herbicidal effect, K: Italian ryegrass (Italian ryegrass [4]): 4 (Herbicidal rate of 70% or more and less than 90%); herbicidal effect, G: green foxtail (green foxtail [5]): 4 (Herbicidal rate of 70% or more and less than 90%); herbicidal effect, O: lambsquarters (lambsquarters [9]): 4 (Herbicidal rate of 70% or more and less than 90%); herbicidal effect, P: chickweed (chickweed [10]): 3 (Herbicidal rate of 40% or more and less than 70%); herbicidal effect, R: persian speedwell (persian speedwell [11]): 4 (Herbicidal rate of 70% or more and less than 90%); herbicidal effect, N: redroot pigweed (redroot pigweed [12]): 5 (Herbicidal rate of 90% or more (almost completely withered)); Herbicidal effect on C: oval-leafed pondweed (grade 0-5) (oval-leafed pondweed [13]; 320 g/ha applied herbicide): 2 (Herbicidal rate of 20% or more and less than 40%); herbicidal effect, L: windgrass (windgrass [14]): 0 (Herbicidal rate of 5% or less (almost no effect)); herbicidal effect, F: southern crabgrass (southern crabgrass [15]): 2 (Herbicidal rate of 20% or more and less than 40%); herbicidal effect, M: velvetleaf (velvetleaf [16]): 3 (Herbicidal rate of 40% or more and less than 70%); herbicidal effect, I: wild oat (wild oat [17]): 0 (Herbicidal rate of 5% or less (almost no effect)); Herbicidal effect on A: late watergrass (grade 0-5) (late watergrass [18]; 320 g/ha applied herbicide): 3 (Herbicidal rate of 40% or more and less than 70%); herbicidal effect, J: blackgrass (blackgrass [19]): 0 (Herbicidal rate of 5% or less (almost no effect))"
CCCC(=O)Oc1c(CC)nn(C)c(=O)c1-c1c(-c2ccc(Cl)cc2)sc2ccc(F)cc12 [2-409],5 (Herbicidal rate of 90% or more (almost completely withered)),5 (Herbicidal rate of 90% or more (almost completely withered)),3 (Herbicidal rate of 40% or more and less than 70%),2 (Herbicidal rate of 20% or more and less than 40%),4 (Herbicidal rate of 70% or more and less than 90%),3 (Herbicidal rate of 40% or more and less than 70%),4 (Herbicidal rate of 70% or more and less than 90%),3 (Herbicidal rate of 40% or more and less than 70%),0 (Herbicidal rate of 5% or less (almost no effect)),0 (Herbicidal rate of 5% or less (almost no effect)),3 (Herbicidal rate of 40% or more and less than 70%),5 (Herbicidal rate of 90% or more (almost completely withered)),2 (Herbicidal rate of 20% or more and less than 40%),5 (Herbicidal rate of 90% or more (almost completely withered)),1 (Herbicidal rate of 5% or more and less than 20%),0 (Herbicidal rate of 5% or less (almost no effect)),3 (Herbicidal rate of 40% or more and less than 70%),4 (Herbicidal rate of 70% or more and less than 90%),3 (Herbicidal rate of 40% or more and less than 70%),4 (Herbicidal rate of 70% or more and less than 90%),"G: green foxtail, herbicidal effect grade (green foxtail [31]): 4 (Herbicidal rate of 70% or more and less than 90%)"
CCCOc1ccc(-c2sc3ccc(F)cc3c2-c2c(O)c(CC)nn(C)c2=O)cc1 [2-418],5 (Herbicidal rate of 90% or more (almost completely withered)),5 (Herbicidal rate of 90% or more (almost completely withered)),0 (Herbicidal rate of 5% or less (almost no effect)),2 (Herbicidal rate of 20% or more and less than 40%),3 (Herbicidal rate of 40% or more and less than 70%),3 (Herbicidal rate of 40% or more and less than 70%),5 (Herbicidal rate of 90% or more (almost completely withered)),4 (Herbicidal rate of 70% or more and less than 90%),0 (Herbicidal rate of 5% or less (almost no effect)),4 (Herbicidal rate of 70% or more and less than 90%),4 (Herbicidal rate of 70% or more and less than 90%),5 (Herbicidal rate of 90% or more (almost completely withered)),2 (Herbicidal rate of 20% or more and less than 40%),5 (Herbicidal rate of 90% or more (almost completely withered)),4 (Herbicidal rate of 70% or more and less than 90%),4 (Herbicidal rate of 70% or more and less than 90%),2 (Herbicidal rate of 20% or more and less than 40%),5 (Herbicidal rate of 90% or more (almost completely withered)),4 (Herbicidal rate of 70% or more and less than 90%),5 (Herbicidal rate of 90% or more (almost completely withered)),"G: green foxtail, herbicidal effect grade (green foxtail [31]): 3 (Herbicidal rate of 40% or more and less than 70%)"

# — patent publication US20230085307A1, “PYRIDAZINONE COMPOUND AND HERBICIDE” (NISSAN CHEMICAL CORPORATION, priority 2019, published 2023)
